Laboratory results: ChEMBL document CHEMBL1201862, “PubChem BioAssay data set” (2004)
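Assay format: 96-well plates, 48-hour exposure. GI50 = concentration required for 50% inhibition of growth.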 The source made the active and inactive calls. No stated cut-off is given here; in the data, active = GI50 up to about 1.1 µM and inactive = higher.

Legend:
Test in all cases: DTP human tumour cell line panel, 48 h
HCT-116 = tested on: HCT-116
RXF 393 = tested on: RXF 393
SNB-75 = tested on: SNB-75
HOP-92 = tested on: HOP-92
NCI-H226 = tested on: NCI-H226
OVCAR-5 = tested on: OVCAR-5
U-251 = tested on: U-251
HOP-62 = tested on: HOP-62
CCRF-CEM = tested on: CCRF-CEM
SF-295 = tested on: SF-295
NCI-H23 = tested on: NCI-H23
OVCAR-4 = tested on: OVCAR-4
SN12C = tested on: SN12C
LOX IMVI = tested on: LOX IMVI
MOLT-4 = tested on: MOLT-4
HCT-15 = tested on: HCT-15
SNB-19 = tested on: SNB-19
HL-60 = tested on: HL-60
SF-539 = tested on: SF-539
IGROV-1 = tested on: IGROV-1

Measured: GI50

O=C1CN2C(Cl)(Cl)C2(c2ccccc2)c2cc(Cl)ccc2N1CC1CC1 (stereo not drawn)
inactive: HCT-116 18.3 µM | RXF 393 18.7 µM | SNB-75 25.2 µM | HOP-92 12.3 µM | NCI-H226 21.3 µM | OVCAR-5 37.4 µM | U-251 19.1 µM | HOP-62 23.4 µM | CCRF-CEM 27.2 µM | SF-295 9.46 µM | NCI-H23 25.2 µM | OVCAR-4 30.3 µM | SN12C 20.8 µM | LOX IMVI 17.3 µM | MOLT-4 24 µM
19.3 µM: HCT-15

COc1ccc(C2N(NC(=O)c3ccncc3)C(=O)CS2(=O)=O)cc1F (stereo not drawn)
> 100 µM: HCT-15
inactive: HCT-116 > 100 µM | RXF 393 > 100 µM | SNB-75 37.6 µM | HOP-92 > 100 µM | NCI-H226 > 100 µM | OVCAR-5 > 100 µM | SNB-19 > 100 µM | U-251 > 100 µM | HOP-62 > 100 µM | CCRF-CEM > 100 µM | SF-295 > 100 µM | NCI-H23 > 100 µM | HL-60 > 100 µM | OVCAR-4 > 100 µM | SN12C > 100 µM | LOX IMVI 60.4 µM | MOLT-4 14 µM

Cc1ccc(NC(=S)NNC(=O)c2cc(-c3ccccc3)nc3ccccc23)cc1C
inactive: HCT-116 18.6 µM | RXF 393 27 µM | SNB-75 16.3 µM | HOP-92 18.6 µM | NCI-H226 34.8 µM | SF-539 21.2 µM | OVCAR-5 26.8 µM | SNB-19 32 µM | U-251 19.5 µM | HOP-62 22 µM | IGROV-1 20 µM | CCRF-CEM 27.5 µM | SF-295 12.9 µM | NCI-H23 19.3 µM | OVCAR-4 18.1 µM | SN12C 17.6 µM | MOLT-4 20.8 µM
20.4 µM: HCT-15

C/C(=C1\N=C(c2ccccc2)OC1=O)c1ccccc1
> 100 µM: HCT-15
inactive: HCT-116 > 100 µM | HOP-92 > 100 µM | NCI-H226 > 100 µM | SF-539 > 100 µM | OVCAR-5 > 100 µM | SNB-19 > 100 µM | U-251 > 100 µM | HOP-62 > 100 µM | IGROV-1 > 100 µM | CCRF-CEM > 100 µM | SF-295 > 100 µM | NCI-H23 > 100 µM | HL-60 > 100 µM | OVCAR-4 > 100 µM | LOX IMVI > 100 µM | MOLT-4 > 100 µM
active: SNB-75 0.611 µM

NC1CCCCC1
470 µM: HCT-15
inactive: HCT-116 193 µM | RXF 393 347 µM | SNB-75 264 µM | HOP-92 258 µM | SF-539 164 µM | OVCAR-5 386 µM | SNB-19 187 µM | U-251 313 µM | HOP-62 223 µM | IGROV-1 317 µM | CCRF-CEM 260 µM | NCI-H23 > 562 µM | HL-60 135 µM | OVCAR-4 265 µM | SN12C > 562 µM | LOX IMVI 506 µM | MOLT-4 195 µM

CO[C@H]1C=C[C@@]23c4cc5c(cc4CO[C@]2(O)CN(C)[C@H]3C1)OCO5
> 100 µM: HCT-15
inactive: HCT-116 > 100 µM | SNB-75 > 100 µM | HOP-92 > 100 µM | NCI-H226 > 100 µM | SF-539 > 100 µM | OVCAR-5 > 100 µM | SNB-19 > 100 µM | U-251 > 100 µM | IGROV-1 > 100 µM | CCRF-CEM > 100 µM | SF-295 > 100 µM | NCI-H23 > 100 µM | HL-60 > 100 µM | OVCAR-4 > 100 µM | SN12C > 100 µM | LOX IMVI > 100 µM | MOLT-4 > 100 µM

O=C1CCC(c2ccccc2)=NN1c1nsc2ccccc12
> 100 µM: HCT-15
inactive: HCT-116 99.3 µM | RXF 393 > 100 µM | SNB-75 7.21 µM | HOP-92 > 100 µM | SF-539 > 100 µM | OVCAR-5 > 100 µM | SNB-19 > 100 µM | U-251 > 100 µM | HOP-62 > 100 µM | IGROV-1 97.9 µM | CCRF-CEM 61.4 µM | NCI-H23 > 100 µM | HL-60 > 100 µM | OVCAR-4 > 100 µM | SN12C > 100 µM | LOX IMVI > 100 µM | MOLT-4 60 µM

CC(SC(=S)N1CCOCC1)C(=O)Nc1nnc(-c2ccc(Cl)cc2)o1 (stereo not drawn)
20.7 µM: HCT-15
inactive: HCT-116 23.8 µM | RXF 393 > 100 µM | SNB-75 > 100 µM | HOP-92 > 100 µM | NCI-H226 67.8 µM | SF-539 74.5 µM | OVCAR-5 48.6 µM | SNB-19 40 µM | U-251 35 µM | HOP-62 52 µM | IGROV-1 33.8 µM | NCI-H23 50.2 µM | OVCAR-4 26.7 µM | SN12C 36.1 µM | LOX IMVI 28.8 µM | MOLT-4 16.1 µM
active: CCRF-CEM < 0.01 µM

Cc1cc2c(ccc[n+]2[O-])[n+]([O-])c1
inactive: HCT-116 > 100 µM | RXF 393 4.74 µM | SNB-75 > 100 µM | HOP-92 > 100 µM | NCI-H226 > 100 µM | SF-539 > 100 µM | OVCAR-5 > 100 µM | SNB-19 > 100 µM | U-251 > 100 µM | HOP-62 > 100 µM | IGROV-1 > 100 µM | CCRF-CEM > 100 µM | SF-295 > 100 µM | NCI-H23 > 100 µM | HL-60 > 100 µM | OVCAR-4 > 100 µM | SN12C > 100 µM | MOLT-4 > 100 µM
> 100 µM: HCT-15

COc1cc([C@@H]2c3cc4c(cc3[C@@H](c3c(O)cc(O)c5c3O[C@H](c3ccc(O)c(O)c3)[C@@H](O)C5)[C@H]3COC(=O)[C@H]23)OCO4)cc(OC)c1O
> 100 µM: HCT-15
inactive: HCT-116 72.8 µM | RXF 393 > 100 µM | HOP-92 > 100 µM | SF-539 58.7 µM | OVCAR-5 > 100 µM | SNB-19 > 100 µM | U-251 > 100 µM | HOP-62 > 100 µM | IGROV-1 > 100 µM | CCRF-CEM 63.2 µM | SF-295 > 100 µM | NCI-H23 > 100 µM | HL-60 27 µM | OVCAR-4 > 100 µM | SN12C > 100 µM | LOX IMVI > 100 µM | MOLT-4 44 µM

COc1cc2ccc(CC(N)=O)cc2cc1OC
> 100 µM: HCT-15
inactive: HCT-116 > 100 µM | RXF 393 > 100 µM | SNB-75 40.3 µM | HOP-92 > 100 µM | NCI-H226 > 100 µM | SF-539 > 100 µM | OVCAR-5 > 100 µM | SNB-19 > 100 µM | U-251 > 100 µM | HOP-62 > 100 µM | IGROV-1 > 100 µM | CCRF-CEM > 100 µM | SF-295 > 100 µM | NCI-H23 > 100 µM | OVCAR-4 > 100 µM | SN12C > 100 µM | LOX IMVI > 100 µM | MOLT-4 > 100 µM

Clc1ccc(-c2nnc(-c3nsc4ccccc34)o2)cc1
47.8 µM: HCT-15
inactive: HCT-116 18.2 µM | RXF 393 38.3 µM | SNB-75 8.17 µM | HOP-92 17.9 µM | SF-539 20 µM | OVCAR-5 58.7 µM | SNB-19 30.8 µM | U-251 15.2 µM | HOP-62 13.8 µM | IGROV-1 18.5 µM | NCI-H23 17.5 µM | OVCAR-4 14.2 µM | SN12C 36.6 µM | LOX IMVI 40.1 µM
